Each molecule was assayed against PRMT5 (Homo sapiens, UniProt O14744) (assay: PRMT5 IC50 (Table 2; no method described)). Details: read-out: PRMT5_ IC50.
Assay type: biochemical

Sequence of PRMT5 (O14744 whole entry, species assumed): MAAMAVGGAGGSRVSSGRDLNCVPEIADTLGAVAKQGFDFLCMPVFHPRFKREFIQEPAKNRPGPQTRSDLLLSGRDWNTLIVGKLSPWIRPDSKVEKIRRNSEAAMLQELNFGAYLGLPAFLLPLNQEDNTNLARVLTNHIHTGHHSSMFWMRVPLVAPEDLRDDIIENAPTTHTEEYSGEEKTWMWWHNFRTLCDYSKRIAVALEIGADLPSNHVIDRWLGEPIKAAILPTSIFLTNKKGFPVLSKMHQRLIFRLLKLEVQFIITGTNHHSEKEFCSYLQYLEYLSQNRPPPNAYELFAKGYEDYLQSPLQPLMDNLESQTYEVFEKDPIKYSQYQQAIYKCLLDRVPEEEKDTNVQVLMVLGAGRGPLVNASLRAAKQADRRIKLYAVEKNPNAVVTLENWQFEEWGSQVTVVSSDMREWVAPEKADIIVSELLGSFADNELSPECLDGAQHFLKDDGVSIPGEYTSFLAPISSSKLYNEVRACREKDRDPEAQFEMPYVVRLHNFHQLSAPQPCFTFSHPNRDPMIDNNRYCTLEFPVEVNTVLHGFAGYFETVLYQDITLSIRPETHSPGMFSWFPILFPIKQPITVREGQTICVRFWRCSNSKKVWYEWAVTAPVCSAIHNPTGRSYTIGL
Sequence of PRMT5 (Q9BQA1 whole entry partner, species assumed): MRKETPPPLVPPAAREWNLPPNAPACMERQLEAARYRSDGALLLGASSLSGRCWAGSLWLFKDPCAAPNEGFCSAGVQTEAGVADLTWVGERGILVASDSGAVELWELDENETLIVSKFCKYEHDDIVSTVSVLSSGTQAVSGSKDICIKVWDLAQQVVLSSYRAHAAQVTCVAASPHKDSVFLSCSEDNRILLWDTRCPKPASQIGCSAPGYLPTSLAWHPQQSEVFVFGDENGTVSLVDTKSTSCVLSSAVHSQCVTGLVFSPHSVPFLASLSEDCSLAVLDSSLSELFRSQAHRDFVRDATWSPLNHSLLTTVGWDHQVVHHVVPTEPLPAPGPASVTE

Row | IC50 [nM] | SMILES
1 | 161 | COc1ccccc1Cn1cnc2ccc(-c3ccc(CNCCN)cc3)cc21 [Compound 80]
2 | 100 | NCCNCc1ccc(-c2ccc3ncn(Cc4ccc(C(=O)N5CCCC5)cc4)c3c2)cc1 [Compound 104]
3 | 178 | Cc1cccc(-n2cnc3ccc(-c4ccc(CNCCN)cc4)cc32)c1 [Compound 106]
4 | 50000 | CNCCN(C)Cc1cccc(-c2ccc3cnn(C(C)C)c3c2)c1 [Compound 100]
5 | 88.8 | COc1cccc(CCn2cnc3ccc(-c4ccc(CNCCN)cc4)cc32)c1 [Compound 94]
6 | 22500 | Cc1c(C(=O)NCc2ccccc2)cc(-c2ccc(CN(C)CCN)cc2)c2cn[nH]c12 [Compound 7]
7 | 65.9 | Cc1ccc(Cn2cnc3ccc(-c4ccc(CNCCN)cc4)cc32)cc1 [Compound 97]
8 | 421 | NCCNCc1ccc(-c2ccc3ncn(CC4CCNCC4)c3c2)cc1 [Compound 70]
9 | 321 | NCCNCc1ccc(-c2ccc3ncn(CC4CCCNC4)c3c2)cc1 (stereo not shown) [Compound 81]
10 | 273 | COc1cccc(-n2cnc3ccc(-c4ccc(CNCCN)cc4)cc32)c1 [Compound 110]
11 | 343 | COc1ccccc1-c1nc2ccc(-c3ccc(CNCCN)cc3)cc2[nH]1 [Compound 115]
12 | 50000 | CNCCN(C)Cc1cccc(-c2ccc3cnn(C(C)C)c3n2)c1 [Compound 73]
13 | 16000 | COc1cccc(Cn2cnc3ccc(-c4ccc(CN(C)CCN)cc4)cc32)c1 [Compound 8]
14 | 27700 | CC(C)n1ncc2c(NC(=O)OCc3ccccc3)cc(-c3cccc(CN(C)CCN)c3)nc21 [Compound 84]
15 | 200000 | CNCCN(C)Cc1cccc(-c2cc(N(C)C3CC3)c3cnn(C(C)C)c3n2)c1 [Compound 95]
16 | 236 | Cc1ccccc1Cn1cnc2ccc(-c3ccc(CNCCN)cc3)cc21 [Compound 82]

Each molecule was assayed on asymmetric di-methyl PABP1 in RKO cells (assay: In Cell Western (ICW) for asymmetric di-methyl PABP1 and DNA content in RKO cells). Details: Homo sapiens, RKO, In Cell Western.
Assay type: cell-based
Procedure, shortened: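 RKO cells treated with compound for 48 h at 37 °C, then fixed, methanol-permeabilized and stained for asymmetric di-methyl PABP1 (800 nm) with DRAQ5 DNA stain (700 nm). Signal ratio normalized to DMSO and 20 μM reference-compound controls. IC50 from nine 3-fold dilutions in triplicate.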

Row | IC50 [µM] | SMILES
17 | 10.9 | CNCCN(C)Cc1cccc(-c2cc(OC3CCOC3)c3cnn(C(C)C)c3n2)c1 (stereo not shown) [Compound 102]
18 | 1.53 | CNCCN(C)Cc1cccc(-c2cc(C(=O)NCc3cc(C)nn3C)c3cnn(C(C)C)c3n2)c1 [Compound 120]
19 | 11.9 | CCS(=O)(=O)Nc1cc(-c2cccc(CN(C)CCN)c2)nc2c1cnn2C(C)C [Compound 111]
20 | 1.36 | CNCCN(C)Cc1cccc(-c2cc(C(=O)NCC3CCOCC3)c3cnn(C(C)C)c3n2)c1 [Compound 105]
21 | 20 | CC(C)n1ncc2c(C(=O)NCc3ccccc3Cl)cc(-c3cccc(CN(C)CCN)c3)nc21 [Compound 54]
22 | 12.5 | CN(CCN)Cc1cccc(-c2nc(NC3CC3)c3cnn(C4CC4)c3n2)c1 [Compound 96]
23 | 20 | CNCCN(C)Cc1cccc(-c2nc(NCc3cnn(C)c3C)c3cnn(C4CC4)c3n2)c1 [Compound 57]
24 | 1.13 | CC(C)n1ncc2c(C(=O)NCC3CCOCC3)cc(-c3cccc(CN(C)CCN)c3)nc21 [Compound 108]
25 | 6.31 | CC(C)n1ncc2c(NC3CCOCC3)cc(-c3cccc(CN(C)CCN)c3)nc21 [Compound 101]
26 | 0.39 | CNCCN(C)Cc1cccc(-c2nc(NCc3cn4ccsc4n3)c3cnn(C4CC4)c3n2)c1 [Compound 6]
27 | 1.65 | CNCCN(C)Cc1cccc(-c2cc(N3CCC(C#N)CC3)c3cnn(C(C)C)c3n2)c1 [Compound 93]
28 | 16.8 | CNCCN(C)Cc1cccc(-c2cc(C(=O)N3CCCCC3)c3cnn(C(C)C)c3n2)c1 [Compound 56]
29 | 20 | CNCCN(C)Cc1cccc(-c2nc(NCc3ccccn3)c3cnn(C4CC4)c3n2)c1 [Compound 9]
30 | 20 | CN(CCN)Cc1cccc(-c2nc(NCc3cn4ccsc4n3)c3cnn(C4CC4)c3n2)c1 [Compound 5]
31 | 3.47 | CCOc1cc(-c2cccc(CN(C)CCNC)c2)nc2c1cnn2C(C)C [Compound 53]
32 | 17.8 | CNCCN(C)Cc1cccc(-c2cc(OC)c3cnn(C(C)C)c3n2)c1 [Compound 124]
33 | 10.3 | CNCCN(C)Cc1cccc(-c2cc(N(C)C)c3cnn(C(C)C)c3n2)c1 [Compound 103]
34 | 13 | CCOC(=O)c1cc(-c2cccc(CN(C)CCNC)c2)nc2c1cnn2C(C)C [Compound 78]
35 | 2.62 | CC(C)n1ncc2c(NC(=O)N(C)C)cc(-c3cccc(CN(C)CCN)c3)nc21 [Compound 116]
36 | 5.39 | CNCCN(C)Cc1cccc(-c2cc(N3CCC(OC)CC3)c3cnn(C(C)C)c3n2)c1 [Compound 51]
37 | 5.66 | CC(C)n1ncc2c(N3CCOCC3)cc(-c3cccc(CN(C)CCN)c3)nc21 [Compound 61, N1-(3-(1-isopropyl-4-morpholino-1H-pyrazolo[3,4-b]pyridin-6-yl)benzyl)-N1-methylethane-1,2-diamine]
38 | 1.54 | CNCCN(C)Cc1cccc(-c2nc(N3CCOCC3)c3cnn(C(C)C)c3n2)c1 [Compound 99]
39 | 11 | COC(=O)Nc1cc(-c2cccc(CN(C)CCN)c2)nc2c1cnn2C(C)C [Compound 71]

Row | IC50 [µM] | SMILES
40 | 15.5 | CC(C)n1cc2c(Cl)cc(-c3cccc(CN(C)CCN)c3)nc2n1 [Compound 59]
41 | 1.63 | CNCCN(C)Cc1cccc(-c2cc(NC3CCOCC3)c3cnn(C(C)C)c3n2)c1 [Compound 76]
42 | 11.8 | CC(C)n1ncc2c(NS(=O)(=O)N(C)C)cc(-c3cccc(CN(C)CCN)c3)nc21 [Compound 107]
43 | 1.37 | CN(CCN)Cc1cccc(-c2nc(N(C)C3CCOCC3)c3cnn(C4CC4)c3n2)c1 [Compound 119]
44 | 3.46 | CC(C)NC(=O)Nc1cc(-c2cccc(CN(C)CCN)c2)nc2c1cnn2C(C)C [Compound 86]
45 | 20 | CNCCN(C)Cc1cccc(-c2cc(C#N)c3cnn(C(C)C)c3n2)c1 [Compound 74]
46 | 7.45 | CNCCN(C)Cc1cccc(-c2cc(NC)c3cnn(C(C)C)c3n2)c1 [Compound 121]
47 | 4.81 | CNCCN(C)Cc1cccc(-c2cc(N3CCCC(C#N)C3)c3cnn(C(C)C)c3n2)c1 (stereo not shown) [Compound 55]
48 | 1.29 | CNCCN(C)Cc1cccc(-c2cc(-c3cnn(C)c3)c3cnn(C(C)C)c3n2)c1 [Compound 49, N1-(3-(1-isopropyl-4-(1-methyl-1H-pyrazol-4-yl)-1H-pyrazolo[3,4-b]pyridin-6-yl)benzyl)-N1,N2-dimethylethane-1,2-diamine]
49 | 20 | CN(CCN)Cc1cccc(-c2nc(NCc3ccncc3)c3cnn(C4CC4)c3n2)c1 [Compound 66]
50 | 1.6 | CNCCN(C)Cc1cccc(-c2cc(C(=O)NCc3ccccn3)c3cnn(C(C)C)c3n2)c1 [Compound 98]
51 | 20 | CNCCN(C)Cc1cccc(-c2ccc3cnn(C(C)C)c3n2)c1 [Compound 73]
52 | 3.2 | CNCCN(C)Cc1cccc(-c2cc(NC3COC3)c3cnn(C(C)C)c3n2)c1 [Compound 58]
53 | 10.7 | CNCCN(C)Cc1cccc(-c2nc(N(C)C3CCOCC3)c3cnn(C4CC4)c3n2)c1 [Compound 109, N1-(3-(1-cyclopropyl-4-(methyl(tetrahydro-2H-pyran-4-yl)amino)-1H-pyrazolo[3,4-d]pyrimidin-6-yl)benzyl)-N1,N2-dimethylethane-1,2-diamine]
54 | 5.36 | CCNc1cc(-c2cccc(CN(C)CCNC)c2)nc2c1cnn2C(C)C [Compound 72]
55 | 13.3 | CC(C)n1ncc2c(NC(=O)OCc3ccccc3)cc(-c3cccc(CN(C)CCN)c3)nc21 [Compound 84]
56 | 6.8 | CNCCN(C)Cc1cccc(-c2cc(N(C)C3CC3)c3cnn(C(C)C)c3n2)c1 [Compound 95]
57 | 20 | CNCCN(C)Cc1cccc(-c2cc(N3CCC3)c3cnn(C(C)C)c3n2)c1 [Compound 79]
58 | 2.17 | CNCCN(C)Cc1cccc(-c2cc(C(=O)NC3CCOCC3)c3cnn(C4CC4)c3n2)c1 [Compound 87]
59 | 4.78 | CNCCN(C)Cc1cccc(-c2cc(NC(=O)N(C)C)c3cnn(C(C)C)c3n2)c1 [Compound 123]
60 | 2.58 | CNCCN(C)Cc1cccc(-c2cc(NC(=O)NC(C)C)c3cnn(C(C)C)c3n2)c1 [Compound 85]
61 | 20 | CNCCN(C)Cc1cccc(-c2nc(NC3CC3)c3cnn(C4CC4)c3n2)c1 [Compound 114]

Reference: US20170280720A1, “ARGININE […] INHIBITORS AND USES THEREOF” (EPIZYME, INC., priority 2014, published 2017)
